Assay results taken from patent US9126945B2, “N-(3-carbamoylphenly)-1H-pyrazole-5-carboxamide derivatives and the use thereof for controlling animal pests” (BAYER INTELLECTUAL PROPERTY GMBH, priority 2011, dated 2015).

Experiments:
[1] = system: Ctenocephalides felis; experiment: Ctenocephalides felis oral (CTECFE); format: in vivo; details: for inhibition at 0.8 ppm: Ctenocephalides felis, po, 48 h, CTECFE, 2 dat; for kill in % (effect): 100 ppm, after 2 days
Protocol: Ctenocephalides felis Oral (CTECFE)
Solvent: 1 part by weight of dimethyl sulphoxide
For the purpose of producing a suitable preparation of active compound, 10 mg of active compound are mixed with 0.5 ml of dimethyl sulphoxide. A portion of the concentrate is diluted with citrated cattle blood, and the desired concentration is prepared.
About 20 unfed adult fleas (Ctenocephalides felis) are placed into a chamber which is closed at the top and bottom with gauze. A metal cylinder whose bottom end is closed with parafilm is placed onto the chamber. The cylinder contains the blood/active compound preparation, which can be taken up by the fleas through the parafilm membrane. After 2 days, the kill in % is determined.
For the purpose of preparing an appropriate active compound formulation, 10 mg of active compound are mixed with 0.5 ml of dimethyl sulphoxide. A portion of the concentrate is diluted with citrated cattle blood, and the desired concentration is prepared.
About 20 unfed adult fleas (Ctenocephalides felis) are placed into a chamber which is closed at the top and bottom with gauze. A metal cylinder whose bottom end is closed with parafilm is placed onto the chamber. The cylinder contains the blood/active compound preparation, which can be taken up by the fleas through the parafilm membrane.

[2] = system: Myzus persicae; experiment: Myzus test (MYZUPE spray treatment); format: in vivo; details: for inhibition at 100 g/ha / inhibition at 20 g/ha: Myzus persicae, 144 h; for efficacy in %: application rate 500 g/ha, after 6 days
Protocol: Myzus test (Myzupe spray treatment)
After 6 days, the efficacy in % is determined.
Myzus Test (MYZUPE Spray Treatment)

[3] = system: Boophilus microplus; experiment: Boophilus microplus test (BOOPMI injection); format: in vivo; details: for % Activity dat: BOOPMI injection, 0.032 μg/animal, 7 dat; for efficacy in % (laying of fertile eggs): 20 μg/animal, after 7 days
Protocol: Boophilus microplus Test (BOOPMI Injection)
(§1) Solvent: dimethyl sulphoxide
The active compound solution is injected into the abdomen (Boophilus microplus), and the animals are transferred into dishes and stored in a climate-controlled room. The activity is assessed by laying of fertile eggs.
The active compound solution is injected into the abdomen (Boophilus microplus), and the animals are transferred into dishes and stored in a climate-controlled room.
The activity is assessed by laying of fertile eggs. 100% means that none of the ticks has laid any fertile eggs.

[4] = system: Plutella xylostella; experiment: Plutella xylostella spray test (PLUTMA); format: in vivo; details: 168 h, 7 dat
Source text: Plutella xylostella Spray Test (PLUTMA)
(§2) Solvent: 7 parts by weight of dimethylformamide
(§3) Emulsifier: 2 parts by weight of alkylaryl polyglycol ether
(§4) If the addition of ammonium salts or/and penetrants is required, these are in each case added in a concentration of 1000 ppm to the solution of the preparation.

[5] = system: Phaedon cochleariae; experiment: Phaedon cochleariae spray test (PHAECO), cabbage leaves, ppm; format: in vivo; details: 168 h, 7 dat
Source text: Phaedon cochleariae Spray Test (PHAECO)
as §2, §3, §4

[6] = system: Boophilus microplus females of the SP-resistant Parkhurst strain; experiment: Boophilus microplus test (DIP); format: in vivo; details: for inhibition at 20 ppm: Rhipicephalus microplus, 168 h, BOOPMI DIP, 7 dat; for efficacy in % (laying of fertile eggs): 100 ppm, after 7 days
Protocol: Boophilus microplus Test (DIP)
Test animals: adult engorged Boophilus microplus females of the SP-resistant Parkhurst strain
as §1
10 mg of active compound are dissolved in 0.5 ml of dimethyl sulphoxide. For the purpose of preparing a suitable formulation, the active compound solution is diluted with water to the concentration desired in each case.
This active compound preparation is pipetted into tubes. 8-10 ticks are transferred into a further tube with holes. The tube is immersed into the active compound formulation, and all ticks are completely wetted. After the liquid has rum off, the ticks are transferred to filter discs in plastic dishes and kept in a climatized room. The activity is assessed after 7 days by laying of fertile eggs. Eggs whose fertility is not outwardly visible are stored in glass tubes in a climate-controlled cabinet until the larvae hatch. An efficacy of 100% means that none of the ticks has laid any fertile eggs.
10 mg of active compound are dissolved in 0.5 ml of dimethyl sulphoxide. For the purpose of preparing a suitable formulation, the active compound solution is diluted with water to the concentration desired in each case (in ppm).
This active compound preparation is pipetted into tubes. 8-10 ticks are transferred into a further tube with holes. The tube is immersed into the active compound formulation, and all ticks are completely wetted. After the liquid has run out, the ticks are transferred onto filter discs in plastic dishes and stored in a climate-controlled room.
The activity is assessed after the desired time by laying of fertile eggs. Eggs whose fertility is not evident from the outside are kept in glass tubes in a climate-controlled cabinet until the larvae have hatched. An effect of 100% means that none of the ticks has laid any fertile eggs.

[7] = system: Tetranychus urticae; experiment: Tetranychus urticae spray test, OP-resistant (TETRUR), bean plants, ppm; format: in vivo; details: 168 h, 4 ppm, 7 dat
Source text: Tetranychus urticae Spray Test, OP-Resistant (TETRUR)
as §2, §3, §4

[8] = system: Spodoptera frugiperda; experiment: Spodoptera frugiperda spray test (SPODFR), cotton leaves, ppm; format: in vivo; details: 168 h, 7 dat
Source text: Spodoptera frugiperda Spray Test (SPODFR)
as §2, §3, §4
Cotton leaves (Gossypium hirsutum) are sprayed with an active compound formulation of the desired concentration and populated with caterpillars of the armyworm (Spodoptera frugiperda).

[9] = system: Spodoptera frugiperda; experiment: Spodoptera frugiperda test (SPODFR spray treatment), maize leaf discs; format: in vivo; details: for efficacy in %: application rate 500 g/ha, after 7 days
Source text: Spodoptera frugiperda Test (SPODFR Spray Treatment)

[10] = system: Lucilia cuprina larvae; experiment: Lucilia cuprina test (LUCICU); format: in vivo; details: 100 ppm; after 2 days
Protocol: Lucilia cuprina Test (LUCICU)
as §1
Vessels containing horse meat treated with the active compound preparation of the desired concentration are populated with about 20 Lucilia cuprina larvae.
(§5) After 2 days, the kill in % is determined.

[11] = system: Phaedon cochleariae; experiment: Phaedon test (PHAECO spray treatment), Chinese cabbage leaf discs; details: for efficacy in %: application rate 500 g/ha, after 7 days
[12] = system: Musca domestica; experiment: Musca domestica test (MUSCDO); format: in vivo; details: 100 ppm; after 2 days
Protocol: Musca domestica Test (MUSCDO)
as §1
Vessels containing a sponge treated with the active compound preparation of the desired concentration are populated with adult Musca domestica.
as §5
Vessels containing a sponge treated with the active compound formulation of the desired concentration are populated with adult Musca domestica.
After the desired period of time, the kill in % is determined.

[13] = log P by HPLC, EEC Directive 79/831 Annex V.A8, method a); format: physicochemical; details: for logP: cell marked a): HPLC
Protocol: (§6) ^a) Note regarding the determination of the log P values and mass detection The determination of the given log P values was carried out in accordance with EEC Directive 79/831 Annex V.A8 by HPLC (High Performance Liquid Chromatography) on a reversed-phase column (C18). Agilent 1100 LC system; 50*4.6 Zorbax Eclipse Plus C18 1.8 micron; mobile phase A: acetonitrile (0.1% formic acid); mobile phase B: water (0.09% formic acid); linear gradient from 10% acetonitrile to 95% acetonitrile in 4.25 min, then 95% acetonitrile for a further 1.25 min; oven temperature 55° C.; flow rate: 2.0 ml/min Mass detection is via an Agilend MSD system.
as §6, with “mass detection:” for “mass detection”, “2.0 ml/min.” for “2.0 ml/min”

[14] = system: Tetranychus urticae; experiment: Tetranychus test, OP-resistant (TETRUR spray treatment), bean leaf discs; format: in vivo; details: for efficacy in %: application rate 500 g/ha, after 6 days
Protocol: Tetranychus Test, OP-Resistant (TETRUR Spray Treatment)
After a time of 6 days, the efficacy in % is determined.

[15] = system: Nilaparvata lugens; experiment: Nilaparvata lugens spray test (NILALU); format: in vivo
Source text: Nilaparvata lugens Spray Test (NILALU)
as §4

[16] = system: Heliothis armigera; experiment: Heliothis armigera spray test (HELIAR); format: in vivo; details: Helicoverpa armigera, 168 h, 20 ppm, 7 dat
Source text: Heliothis armigera Spray Test (HELIAR)
as §2, §3, §4

[17] = system: Frankliniella occidentalis; experiment: Frankliniella occidentalis spray test (FRANOC); format: in vivo; details: 168 h, 20 g/ha, 7 dat
Source text: Frankliniella occidentalis Spray Test (FRANOC)
as §4

[18] = reversed-phase C18, acetonitrile/water with formic acid, gradient 10% to 95% acetonitrile
[19] = Tetranychus urticae, foliar, 144 h, TETRUR, 6 dat

Row | SMILES | inhibition at 0.8 ppm [1] | % Activity dat [3] | inhibition at 0.8 ppm [5] | inhibition at 20 ppm [6] | inhibition at 4 ppm [7] | kill in % (effect) [1] | efficacy in % [9] | kill in % (efficacy) [10] | efficacy in % [11] | efficacy in % (laying of fertile eggs) [3] | efficacy in % [14] | inhibition at 20 g/ha ([2]; MYZUPE, 6 dat) | further results
1 | CN(C(=O)c1c(C(F)(F)F)c(C(F)(F)C(F)(F)F)nn1C)c1ccc(Cl)c(C(=O)NC2CC2)c1 [Ik-132, reference compound] | 30% | 0% | 5% | 30% | 30% |  |  |  |  |  |  |  | inhibition at 100 g/ha ([2]; MYZUPE, 100 g/ha, 6 dat): 0%; inhibition at 20 ppm [4]: 5%; inhibition at 20 ppm [8]: 50%
2 | Cn1nc(C(F)(F)C(F)(F)F)c(C(F)(F)F)c1C(=O)Nc1ccc(Cl)c(C(=O)NC2(C#N)CCC2)c1 [Example 7] |  |  |  |  |  | 80% | 83% | 100% | 100% | 100% | 100% |  | kill in % (efficacy) [12]: 100%; logP [13, 18]: 3.55 ^a)
3 | Cn1nc(C(F)(F)C(F)(F)F)c(C(F)(F)F)c1C(=O)Nc1ccc(Br)c(C(=O)NC2(C#N)CC2)c1 [Example 14] |  |  |  |  |  |  |  |  |  |  |  |  | % Activity dat ([2]; MYZUPE, 100 g/ha, 6 dat): 100 6 dat 100 6 dat %; inhibition at 100 g/ha ([2]; MYZUPE, 100 g/ha, 6 dat): 100%; chromatographic logP ([13]; reversed-phase HPLC column (C18); cell prints no method mark; Ex. 40 value equals the log P given under method a)): 3.31; inhibition at 100 g/ha ([14]; Tetranychus urticae, foliar, 144 h, TETRUR, 100 g/ha, 6 dat): 100%; inhibition at 500 g/ha ([15]; 96 h, 4 dat): 80%; inhibition at 4 ppm ([5]; 4 ppm): 100%
4 | CCN(C(=O)c1c(C(F)(F)F)c(C(F)(F)C(F)(F)F)nn1C)c1ccc(Cl)c(C(=O)NC2(C#N)CC2)c1 [Example 6] | 80% | 70% | 100% | 100% |  | 100% | 100% | 100% | 100% | 100% | 100% | 70% | efficacy in % [2]: 100%; kill in % (efficacy) [12]: 100%; chromatographic logP ([13]; reversed-phase C18 HPLC column; cell marked a): HPLC, reversed-phase C18, acetonitrile/water with formic acid, gradient 10% to 95% acetonitrile): 3.36; inhibition at 20 g/ha [14, 19]: 100%; inhibition at 20 g/ha ([15]; 168 h, 7 dat): 90%; efficacy in % (laying of fertile eggs) [6]: 100%
5 | CCN(C(=O)c1c(C(F)(F)F)c(C(F)(F)C(F)(F)F)nn1C)c1ccc(Cl)c(C(=O)NC2CC2)c1 [Ik-136, reference compound] | 30% | 0% | 0% | 0% |  |  |  |  |  |  |  | 0% | inhibition at 20 g/ha [14, 19]: 0%; inhibition at 20 g/ha ([15]; 168 h, 7 dat): 0%
6 | Cn1nc(C(F)(F)C(F)(F)F)c(C(F)(F)F)c1C(=O)Nc1ccc(Cl)c(C(=O)NC2CC2)c1 [Ik-1] | 0% |  |  |  | 40% |  |  |  |  |  |  |  | inhibition at 20 ppm [16]: 45%; inhibition at 20 g/ha [17]: 0%; inhibition at 500 g/ha ([15]; 168 h, 7 dat): 0%; inhibition at 20 ppm [8]: 20%
7 | C[C@H]1C[C@H]1NC(=O)c1cc(NC(=O)c2c(C(F)(F)F)c(C(F)(F)C(F)(F)F)nn2C)ccc1Cl [Ik-279, reference compound] |  |  |  |  | 0% |  |  |  |  |  |  | 0% | inhibition at 100 g/ha ([9]; Spodoptera frugiperda, foliar, 168 h, SPODFR, 100 g/ha, 7 dat): 50%; inhibition at 20 g/ha ([11]; Phaedon cochleariae, in Brassica rapa, foliar, 168 h, read-out: % Activity dat): 0%
8 | Cn1nc(C(F)(F)F)c(C(F)(F)F)c1C(=O)Nc1ccc(Cl)c(C(=O)NC2(C#N)CC2)c1 [Example 9] |  |  |  |  |  | 100% | 100% | 100% | 100% | 100% | 100% |  | efficacy in % [2]: 90%; logP [13, 18]: 2.85 ^a); efficacy in % (laying of fertile eggs) [6]: 100%
